Legend:
D(4) dopamine receptor = target: T1, D(4) dopamine receptor (Homo sapiens, UniProt P21917)
T1 sequence (P21917 whole entry): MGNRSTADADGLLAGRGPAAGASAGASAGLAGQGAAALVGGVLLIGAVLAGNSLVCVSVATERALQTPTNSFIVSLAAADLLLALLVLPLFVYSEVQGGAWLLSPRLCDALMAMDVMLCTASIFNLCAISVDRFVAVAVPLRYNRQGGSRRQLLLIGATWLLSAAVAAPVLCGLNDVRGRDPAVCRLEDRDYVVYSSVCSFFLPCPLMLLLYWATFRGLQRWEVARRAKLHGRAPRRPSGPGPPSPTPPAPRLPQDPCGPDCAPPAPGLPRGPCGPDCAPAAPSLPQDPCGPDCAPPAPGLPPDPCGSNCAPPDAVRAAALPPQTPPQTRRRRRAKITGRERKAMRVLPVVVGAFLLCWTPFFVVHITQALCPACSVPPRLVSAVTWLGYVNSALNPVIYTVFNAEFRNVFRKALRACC

D(2) dopamine receptor = D(2) dopamine receptor (Homo sapiens, UniProt P14416)
Sequence of D(2) dopamine receptor (P14416 whole entry): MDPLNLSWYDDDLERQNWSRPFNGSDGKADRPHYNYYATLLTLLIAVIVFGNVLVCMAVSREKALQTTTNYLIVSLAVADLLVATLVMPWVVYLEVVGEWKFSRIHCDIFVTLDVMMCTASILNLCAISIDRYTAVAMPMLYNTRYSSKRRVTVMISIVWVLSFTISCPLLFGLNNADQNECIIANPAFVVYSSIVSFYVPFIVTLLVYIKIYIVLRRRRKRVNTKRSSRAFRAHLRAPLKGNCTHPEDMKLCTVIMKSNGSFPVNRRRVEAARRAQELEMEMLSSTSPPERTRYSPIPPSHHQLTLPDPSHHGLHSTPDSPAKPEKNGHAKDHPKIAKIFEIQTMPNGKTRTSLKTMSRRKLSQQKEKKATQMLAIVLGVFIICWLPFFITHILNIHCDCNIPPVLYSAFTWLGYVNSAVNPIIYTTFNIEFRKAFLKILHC

| Structure (SMILES) | Ki (D(4) dopamine receptor) [µM] | Ki (D(2) dopamine receptor) [µM] |
| --- | --- | --- |
| CCN(CC)C(=O)N[C@H]1C[C@@H]2c3cccc4[nH]cc(c34)C[C@H]2N(C)C1 | 0.0052 | 0.0007 |
| CCCN[C@@H]1CCc2c(OC)cccc2[C@@H]1C | 0.132 | 0.12 |
| CN1CCN(CCCN2c3ccccc3Sc3ccc(C(F)(F)F)cc32)CC1 | – | 0.0011 |
| CCN1CCC[C@H]1CNC(=O)c1c(O)c(Cl)cc(Cl)c1OC [3,5-Dichloro-N-(1-ethyl-pyrrolidin-2-ylmethyl)-2-hydroxy-6-methoxy-benzamide (raclopride)] | 1.34 | – |
| CSc1ccc2c(c1)N(CC[C@@H]1CCCCN1C)c1ccccc1S2 [10-[2-(1-Methyl-piperidin-2-yl)-ethyl]-2-methylsulfanyl-10H-phenothiazine (thioridazine)] | 0.0229 | – |
| CN1CCN(C2=Nc3ccccc3Oc3ccc(Cl)cc32)CC1 [13-chloro-10-(4-methylpiperazin-1-yl)-2-oxa-9-azatricyclo[9.4.0.0^{3,8}]pentadeca-1(11),3,5,7,9,12,14-heptaene] | 0.029 | – |
| CC1CCN(CCCC(=O)c2ccc(F)cc2)CC1 [CAS_3575-80-2] | 0.139 | – |
| CCCN1CCCC(c2cccc(O)c2)C1 (configuration not stated) [CAS_85976-54-1] | 0.546 | – |
| CCCN(CCC)C1C=Cc2c(OC)cccc2C1C (configuration not stated) [CAS_5311190] | 0.0665 | 0.0294 |
| O=C(O)c1ccccc1C(=O)Nc1cccc2ccccc12 [NPA,(+)] | 0.12 | 0.291 |
| CN1C[C@@H](NC(=O)C(C)(C)C)CC2c3cccc4[nH]c(Cl)c(c34)C[C@H]21 (some centres not stated) [SDZ-208-912] | 0.0035 | 0.0009 |
| CCCOc1ccc2nc(NC(=O)OC)[nH]c2c1 [SMR000058208] | 0.152 | – |

Source: BindingDB's records for doi:10.1016/0014-2999(93)90488-4 (Maryland Psychiatric Research Center, 1993)
